Data reported in patent US10292980B2, “GAPDH cascade inhibitor compounds and methods of use and treatment of stress induced disorders including mental illness” (THE JOHNS HOPKINS UNIVERSITY, priority 2012, dated 2019).

Experiments:
[1] = target: GAPDH-Siah1 binding (Homo sapiens, UniProt P04406); assay: in vitro binding of purified recombinant GAPDH and GST-Siah1 (GST-agarose pull down, western blot); conditions: GAPDH pre-incubated with compound
Procedure: (§1) FIG. 4A-4D depict a deprenyl derivative compound of the present invention that blocks GAPDH-Siah1 binding. […] FIG. 4B is a graph depicting inhibition of GAPDH-Siah1 binding by the RR compound in vitro. GAPDH was pre-incubated with the RR compound, then GST-Siah1 was added and binding was assessed by GST-agarose pull down followed by western blotting. The graph represents quantification results of the blots from 6 experiments. FIG. 4C is a pair of graphs depicting in vitro MAO activity. FIG. 4D is a bar graph showing glycolytic activity in cultured rat neonatal cardiac cells exposed to 1 nM RR for 48 hours *p<0.05.
To test whether TAC elicits nuclear translocation of GAPDH and activates p300, a specific tool to intervene GAPDH nuclear translocation is needed. Several structural analogues of deprenyl that blocked GAPDH-Siah1 binding and the nuclear GAPDH cascade were previously screened (data not shown).

[2] = system: MAO-A/B; assay: MAO activity assay in cultured myocytes; type: cell-based, rat; conditions: concentrations between 0.1 nM and 10^5 nM
Procedure: (§2) HAT activity assay, MEF2 activity assay, MAO activity assay, GAPDH assay: p300 HAT activity was measured using commercially available kit (Biovision), using immunoprecipitation with p300 antibody (Circulation 118, 934-946 (2008)). MEF2 activity was measured using luciferase reporter assay (Panomics). MAO activity assay was measured using commercially available kit (Peninsula Laboratory). GAPDH activity was measured as previously described in (Nat. Cell Biol., 7, 665-674 (2005)). PUMA mRNA expression was determined by real time RT-PCR using SYBR Green fluorescence on a LightCycler instrument (Roche Applied Science). Expression of the gene of interest was divided by the housekeeping gene glyceraldehyde-3-phosphate dehydrogenase (GAPDH) and presented as fold induction of control.
A major challenge to identify a compound that selectively blocks the nuclear GAPDH cascade is their potential inhibition of monoamine oxidases (MAOs), which deprenyl originally harbors. Thus, it was examined whether RR inhibits MAO-A/B in cultured myocytes and a dramatic contrast was observed between RR and deprenyl. There was no inhibition of MAOs by RR in a wide range of concentrations between 0.1 nM and 10^5 nM concentrations (FIG. 4C).

[3] = target: T1, GAPDH (Rattus norvegicus, UniProt P04797); assay: GAPDH glycolytic activity in cultured cardiac cells; type: cell-based; conditions: cardiac myocytes, 1 nM, 48 hours
T1 construct: endogenous in cells; host or cells: cultured rat neonatal cardiac cells (from Sprague-Dawley rats)
T1 sequence (P04797 whole entry): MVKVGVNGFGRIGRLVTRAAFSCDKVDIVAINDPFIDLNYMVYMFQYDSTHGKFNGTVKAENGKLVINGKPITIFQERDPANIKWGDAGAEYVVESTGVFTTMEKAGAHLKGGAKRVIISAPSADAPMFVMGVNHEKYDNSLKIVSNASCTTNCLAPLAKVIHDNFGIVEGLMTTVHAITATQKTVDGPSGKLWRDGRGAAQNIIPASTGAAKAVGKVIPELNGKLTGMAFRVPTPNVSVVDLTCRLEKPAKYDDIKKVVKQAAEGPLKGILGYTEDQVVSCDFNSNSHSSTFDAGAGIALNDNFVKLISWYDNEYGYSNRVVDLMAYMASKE
Procedure: as §1
as §2, with “control. […]” for “control.”

[4] = system: GAPDH-Siah1 binding / nuclear translocation of GAPDH; assay: GAPDH nuclear cascade in cardiac myocytes exposed to ET1 (co-immunoprecipitation, immunostaining, fractionation); type: cell-based, rat
Procedure: Physiological analysis, histological analysis: Echocardiography and pressure-volume loop studies were performed as described previously (Takimoto et al., Nat. Med., 11, 214-222 (2005)). 10% formalin fixed heart samples were embedded in paraffin, sectioned and stained for myocyte size (WGA staining) and fibrosis (Masson Trichrome staining) as described previously (Zhang et al., J. Am. Coll. Cardiol., 56, 2021-2030 (2010)). Isolated adult cardiac myocyte or rat neonatal cardiac myocyte was fixed with 50% methanol/50% acetone and stained with antibodies against GAPDH (Millipore), sulphonated GAPDH or HA as previously described.
(§3) Rat neonatal cardiac myocyte culture: Rat neonatal cardiac myocytes (RNCM) were isolated from 1-2-day-old Sprague-Dawley rats, and cultured cells stimulated with 0.05 μM Endothelin-1, with or without 1 nM RR compound for 48 hours. Protein synthesis was assessed by [^3H]leucine incorporation. Adenoviral transfection of wild-type GAPDH and K227A mutant GAPDH was performed at 10-30 moi as previously described.
(§4) Protein and RNA analysis: Total RNA was isolated from cells or left ventricular myocardium with Trizol (Molecular Research Center, Inc, Cincinnati, Ohio) and analyzed by real-time polymerase chain reaction (PCR) with TaqMan probes (Applied Biosystems, Foster City, Calif.). Results were normalized to GAPDH or 18S RNA. Cell lysates or nuclear extracts were obtained from cultured myocytes or ventricular tissue, resolved by SDS-polyacrylamide gel electrophoresis, subjected to immunoblotting and imaged by chemiluminescence as previously described.
To test a role for the GAPDH-p300 signaling in heart hypertrophy, the Gq agonist ET1 was used as a trigger. ET1 is reported to elicit oxidative stress by activating NADPD oxidase and stress is known as a central contributor to cardiac hypertrophic response including pressure-load hypertrophy, as in the TAC model. Thus, cardiac myocytes were exposed to ET1 at 0.05 μM for about 48 hours and the effects on GAPDH signaling was examined. […]

[5] = system: p300 HAT / MEF2; assay: p300 acetylation and MEF2 luciferase reporter activity in cardiac myocytes treated with ET1; type: cell-based, rat
Procedure: as §3, §2
(§5) Augmented p300 activity reportedly leads to cardiac hypertrophic response via activation of myocyte enhancer factor 2 (MEF2), a master transcriptional factor of mal-adaptive cardiac hypertrophy. Thus, acylation of p300, and activity of MEF2 was tested, together with several outcome measures for hypertrophy response. In cardiac myocytes treated with ET1, augmentation of p300 acylation (reflecting p300 HAT activity), an augmented activity of MEF2, and increases in cell surface area, protein synthesis assayed by ^3H-leucine uptake, and B-type natriuretic peptide (BNP) expression were observed (FIGS. 5D, E).

[6] = system: rat neonatal cardiac myocytes; assay: hypertrophy response of rat neonatal cardiac myocytes to ET1; type: cell-based; conditions: ET1-treated cardiac myocytes, 1 nM
Procedure: as §3, §4, §5

[7] = system: TAC hearts; assay: TAC chronic pressure-overload cardiac hypertrophy model, treatment from time of constriction; type: in vivo, mouse
Procedure: Cardiac animal models: All protocols were approved by Animal Care and Use Committee of the Johns Hopkins University. TAC was performed in C57/BL6 mice (Jackson Laboratory) as previously described in (Nat. Med., 11, 214-222 (2005), J. Clin. Invest., 119, 408-420 (2009), J. Am. Coll. Cardiol., 56, 2021-2030 (2010)). Physiological analysis, histological analysis: Echocardiography and pressure-volume loop studies were performed as described previously (Takimoto et al., Nat. Med., 11, 214-222 (2005)). 10% formalin fixed heart samples were embedded in paraffin, sectioned and stained for myocyte size (WGA staining) and fibrosis (Masson Trichrome staining) as described previously (Zhang et al., J. Am. Coll. Cardiol., 56, 2021-2030 (2010)). Isolated adult cardiac myocyte or rat neonatal cardiac myocyte was fixed with 50% methanol/50% acetone and stained with antibodies against GAPDH (Millipore), sulphonated GAPDH or HA as previously described. HAT activity assay, MEF2 activity assay, MAO activity assay, GAPDH assay: p300 HAT activity was measured using commercially available kit (Biovision), using immunoprecipitation with p300 antibody (Circulation 118, 934-946 (2008)). MEF2 activity was measured using luciferase reporter assay (Panomics). MAO activity assay was measured using commercially available kit (Peninsula Laboratory). GAPDH activity was measured as previously described in (Nat. Cell Biol., 7, 665-674 (2005)). PUMA mRNA expression was determined by real time RT-PCR using SYBR Green fluorescence on a LightCycler instrument (Roche Applied Science). Expression of the gene of interest was divided by the housekeeping gene glyceraldehyde-3-phosphate dehydrogenase (GAPDH) and presented as fold induction of control. Protein and RNA analysis: Total RNA was isolated from cells or left ventricular myocardium with Trizol (Molecular Research Center, Inc, Cincinnati, Ohio) and analyzed by real-time polymerase chain reaction (PCR) with TaqMan probes (Applied Biosystems, Foster City, Calif.). Results were normalized to GAPDH or 18S RNA. Cell lysates or nuclear extracts were obtained from cultured myocytes or ventricular tissue, resolved by SDS-polyacrylamide gel electrophoresis, subjected to immunoblotting and imaged by chemiluminescence as previously described. To understand the pathology underlying heart hypertrophy, chronic pressure overload induced by transverse aorta constriction (TAC) is used as an established experimental animal model. Heart hypertrophy is evident at 7 to 10 days after the constriction, which leads to irreversible functional defects in 9 weeks. In the present study, the TAC model was employed and identified GAPDH as a key conveyer of the pathological stress signal to nuclear p300, resulting in disruption of critical homeostasis in vivo. In the present invention, the significance of the nuclear GAPDH cascade in vivo has been shown. With this understanding there is also provided novel therapeutic methods of treatment of stress induced disorders, including, for example, cardiac hypertrophy, which are urgent and very important medical needs.

[8] = system: TAC hearts; assay: TAC model, delayed RR treatment of pre-existing cardiac hypertrophy; type: in vivo, mouse
Procedure: Cardiac animal models: All protocols were approved by Animal Care and Use Committee of the Johns Hopkins University. TAC was performed in C57/BL6 mice (Jackson Laboratory) as previously described in (Nat. Med., 11, 214-222 (2005), J. Clin. Invest., 119, 408-420 (2009), J. Am. Coll. Cardiol., 56, 2021-2030 (2010)). Physiological analysis, histological analysis: Echocardiography and pressure-volume loop studies were performed as described previously (Takimoto et al., Nat. Med., 11, 214-222 (2005)). 10% formalin fixed heart samples were embedded in paraffin, sectioned and stained for myocyte size (WGA staining) and fibrosis (Masson Trichrome staining) as described previously (Zhang et al., J. Am. Coll. Cardiol., 56, 2021-2030 (2010)). Isolated adult cardiac myocyte or rat neonatal cardiac myocyte was fixed with 50% methanol/50% acetone and stained with antibodies against GAPDH (Millipore), sulphonated GAPDH or HA as previously described. Protein and RNA analysis: Total RNA was isolated from cells or left ventricular myocardium with Trizol (Molecular Research Center, Inc, Cincinnati, Ohio) and analyzed by real-time polymerase chain reaction (PCR) with TaqMan probes (Applied Biosystems, Foster City, Calif.). Results were normalized to GAPDH or 18S RNA. Cell lysates or nuclear extracts were obtained from cultured myocytes or ventricular tissue, resolved by SDS-polyacrylamide gel electrophoresis, subjected to immunoblotting and imaged by chemiluminescence as previously described. In most clinical settings, medication and treatment starts only after pathological changes occur at least to some extent.

[9] = system: DN-DISC1 mice; assay: three chamber social novelty test in DN-DISC1 mice; type: in vivo, mouse
Description: DN-DISC1 mice express a putative dominant-negative C-terminal truncated DISC1 under expression control of the α CaMKII promoter. Homozygous DN-DISC1 mice were created by systematic cross-breeding of heterozygotes followed by interbreeding of homozygotes at the Johns Hopkins School of Medicine. In the current studies only homozygous males were used. At 3 to 6 months of age, mice were transferred to the Neurogenetics and Behavior Center, Johns Hopkins University, for behavioral testing. They were housed three or four to a cage under a 12 hour light/dark cycle (lights on at 7:00 A.M to 7:00 P.M) and weighed between 25 and 35 grams prior to food deprivation.
Measurement of Social Novelty Test: Wt and DN-DISC1 mice were treated with RR compound or control starting at postnatal day 35 (0.25 mg/kg, i.p./day) and continuing throughout the three-chamber social interaction test in adulthood as described in Johnson et al., supra.
The inventors treated DN-DISC1 mice with RR starting at postnatal day 35 (0.25 mg/kg, i.p./day) and continuing throughout the three-chamber social interaction test in adulthood.

[10] = ET1 exposure, co-treatment with RR
[11] = ET1-treated cardiac myocytes, 1 nM
[12] = 0.25 mg/kg/day i.p. from constriction, measured after 10th day (TAC10)
[13] = pressure volume loop analysis, RR versus vehicle treatment

Sequence of GAPDH-Siah1 binding (P04406 whole entry): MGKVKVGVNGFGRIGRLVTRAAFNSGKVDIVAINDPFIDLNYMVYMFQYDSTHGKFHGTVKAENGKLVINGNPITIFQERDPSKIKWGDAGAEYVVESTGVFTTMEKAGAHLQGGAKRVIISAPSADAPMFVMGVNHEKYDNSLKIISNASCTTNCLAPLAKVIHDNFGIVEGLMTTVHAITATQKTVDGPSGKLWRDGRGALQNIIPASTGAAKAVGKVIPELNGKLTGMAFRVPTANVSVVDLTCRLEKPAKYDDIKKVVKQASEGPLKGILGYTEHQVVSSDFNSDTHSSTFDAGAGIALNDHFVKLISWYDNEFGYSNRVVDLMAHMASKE

C#CCN1[C@H](C)Cc2ccccc2[C@H]1C [RR, (1R,3R)-1,3-dimethyl-2-propargyl-1,2,3,4-tetrahydroisoquinoline]
GAPDH-Siah1 interaction in vitro [1]: blocked the interaction at nanomolar concentrations
inhibition of MAOs [2]: no inhibition
GAPDH glycolytic activity [3]: did not show any influence
GAPDH-Siah1 binding augmented by ET1 ([4]; ET1 0.05 μM about 48 hours, co-administration of RR): normalized
nuclear translocation of GAPDH in response to ET1 ([4]; ET1 0.05 μM, co-treatment 1 nM): blocked
accumulation of sulphonated GAPDH in the nucleus [4, 10]: blocked
augmentation of p300 acylation (reflecting p300 HAT activity) [5, 11]: clearly blocked
augmented activity of MEF2 [5, 11]: clearly blocked
augmentation of p300 acetylation (reflecting p300 HAT activity) in the nucleus [5, 10]: blocked
PUMA expression [6]: unchanged
increase in B-type natriuretic peptide (BNP) expression [6]: clearly blocked
increase in cell surface area [6]: clearly blocked
increase in protein synthesis assayed by 3H-leucine uptake [6]: clearly blocked
levels of nuclear GAPDH in TAC hearts [7, 12]: dramatically reduced
levels of p300 HAT activity in TAC hearts [7, 12]: dramatically reduced
cardiac hypertrophy remodeling assessed by cardiac myocyte cell size ([7]; 0.25 mg/kg/day i.p., TAC): ameliorated
cardiac hypertrophy remodeling assessed by fibrosis ([7]; 0.25 mg/kg/day i.p., TAC): ameliorated
cardiac hypertrophy remodeling assessed by heart weight ([7]; 0.25 mg/kg/day i.p., TAC): ameliorated
TAC-induced left ventricular dilatation (LV-EDD) ([7]; echocardiogram): significantly inhibited
TAC-induced reduction in Fractional Shortening (% FS) ([7]; echocardiogram): significantly inhibited
cardiac performance despite sustained pressure-overload stress ([7]; invasive hemodynamic study, pressure volume loop analysis): improvement of cardiac performance
pathological gene expression profile: down-regulation of calcium handling proteins ([7]; myocardial mRNA, TAC): significantly improved or normalized
pathological gene expression profile: fetal gene re-expression (BNP, β-MHC) ([7]; myocardial mRNA, TAC): significantly improved or normalized
diastolic relaxation properties (Tau) [7, 13]: significantly better
systolic function (dPdtmx) [7, 13]: significantly better
expression profile of cardiac fetal gene (BNP) ([8]; delayed treatment, RR-treated versus vehicle group): significant improvement
cardiac myocyte size (terminal postmortem assessment) ([8]; treatment initiated 1 week after TAC, about two weeks): smaller
further LV mass increase from sustained pressure overload ([8]; treatment initiated 1 week after TAC, about two weeks of treatment, echocardiogram): significantly blocked
social deficit (impaired social recognition) ([9]; 0.25 mg/kg, i.p./day from postnatal day 35 through testing in adulthood): ameliorated the social deficit
sniffing preference for stranger versus familiar mouse ([9]; DISC1 mice treated with RR (n=7), p<0.05): preferentially sniffed the stranger mouse over the familiar mouse
